Assay results reported in patent US20190008797A1, “ESTROGEN RECEPTOR ALPHA COLIGANDS, AND METHODS OF USE THEREOF” (priority 2016, published 2019).

Columns and labels:
U2OS-ERα cells [1] = assay: KRT19 mRNA real-time PCR in U2OS-ERα cells; assay type: cell-based, human; conditions: for KRT19 gene expression, compound alone: 10 nM E2, 5 μM 2′,3′,4′-THC, 1 μM tamoxifen or raloxifene, 24 hours; for effect on E2-induced KRT19 expression: in combination with 10 nM E2, 24 hours
Description: (§1) (FIG. 1a) Chemical structure of 2′, 3′, 4′-THC. (FIG. 1b) U2OS cells cotransfected with ERE tk-luciferase and ERα (left panel) or ERβ (right panel). After transfection the cells were treated for 24 hours with 10 nM estradiol and 5 μM 2′, 3′, 4′-THC alone or in combination. Cells were lysed and luciferase activity was measured. RLU is relative light units. Error bars are the Mean±SEM. **P≤0.01. […] The total cellular RNA was extracted and real-time PCR for KRT19 mRNA was performed as described in Materials and Methods. […] Error bars are ±SEM. *P≤0.05, **** P≤0.0001.
FIGS. 3a-3d. […] Error bars are ±SEM.

U2OS-ERα cells [2] = assay: Microarray gene regulation in U2OS-ERα cells; assay type: cell-based, human
Description: Total cellular RNA was isolated utilizing the Aurum™ RNA isolation kit (Bio-Rad, Hercules, Calif.) per the manufacturer's directions. RNA isolates were first quantified by nanodrop®, and then qualitatively evaluated by the Bio-Rad Experion™ system per the manufacturer's instructions. Biotin-labeled cRNA samples were prepared using 750 ng of total RNA. Biotin-labeled samples were evaluated by both 260/280 absorbance spectrophotometry and capillary electrophoresis. Labeled cRNA samples were hybridized overnight against Human genome HG U133A-2.0 GeneChip® arrays, (Affymetrix, Santa Clara, Calif.). All treatments were done in triplicate with the same batch of microarrays. The data was analyzed as previously described (Saunier, E. F., et al. Estrogenic plant extracts reverse weight gain and fat accumulation without causing mammary gland or uterine proliferation. PloS one 6, e28333 (2011)).
FIGS. 2a-2f2′, 3′, 4′-THC behaves as a unique coagonist on gene expression in U2OS-ERα cells. […] Expression was assessed by up regulation or down regulation of 3-fold or more and a P-value≤0.05. […] Error bars are ±SEM.

U2OS-ERα cells [3] = assay: NKG2E mRNA real-time PCR in U2OS-ERα cells; assay type: cell-based, human; conditions: for NKG2E gene expression, compound alone: 10 nM E2, 5 μM 2′,3′,4′-THC, 1 μM tamoxifen or raloxifene
Description: as §1
(§2) (FIGS. 6a, 6b) Gene expression of (FIG. 6a) KRT73 and (FIG. 6b) NKG2E in U2OS-ERα cells treated with 10 nM estradiol, 5 μM 2′, 3′, 4′-THC, 1μM ICI alone or in combination for 24 hours. […] Error bars are ±SEM. […] After transfection, luciferase activities were measured as described in the Methods. RLU is relative light units and the data shown are mean ±SEM. (FIG. 6c). […] After transfection, luciferase activities were measured as described in the Methods. RLU is relative light units and the data shown are mean ±SEM (FIG. 6d).

MCF-7 cells = assay: MCF-7 cell proliferation (cell counting); conditions: 5 days
mouse uterus = assay: Ovariectomized (OVX) mouse model, osmotic pump; assay type: in vivo; conditions: OVX mice, 4 weeks
Description: 8 week old C57b1/6J female ovariectomized or intact mice were purchased from Jackson Laboratories, Sacramento, Calif. Mice were housed and maintained according to OLAC standard procedures in the NAF facility at UC Berkeley, Calif. All mice were fed a soy-free chow diet 2916.15 (Harlan Laboratories, Livermore, Calif.) starting one week before osmotic pump implantation or 2′, 3′, 4′-THC injection. Pumps Model 2006 were purchased from Alzet and filled with vehicle, 1 μg […], 2 mg of 2′, 3′, 4′-THC or the combination of 2′, 3′, 4′-THC and estradiol. All drugs were dissolved in sterile vehicle consisting of 50% dimethylsulfoxide (DMSO), 25% ETOH and 25% deionized water. Pumps were handled with sterile gloves and filled using a 27 gauge filling tube and 1 mL syringe. All pumps were placed in 1X PBS in 15 mL sterile conical tubes and incubated overnight at 37° . Pumps were surgically implanted into 8 week old C57b1/6J female ovariectomized mice (Jackson Laboratory, Sacramento, Calif.) posterior to the scapula and left for a duration of 4 weeks. Intact mice were injected intraperitoneal with 2′, 3′, 4′-THC every day for 3 weeks. Mice were weighed once a week for the duration of the experiment. The intraperitoneal gonadal fat was removed and weighed. Uterine tissue was collected, fluid drained and then weighed.
Tissues were dissected and immediately frozen in liquid nitrogen. Before RNA isolation, tissues were homogenized in PureZOL™ using the MP FastPrep™-24 for 40 seconds.
Uterine Tissue Slide Preparation Uterine tissue was removed and trimmed of excess adipose tissue. Tissues were fixed in formalin for 24 hours then transferred to 50% ETOH for 1 hour followed by 70% ethanol (ETOH) for another hour. After fixation tissues were sent to Histopathology Reference Laboratory, Hercules Calif. where they were paraffin embedded, sectioned and stained with hematoxylin and eosin for morphological exam
FIGS. 5a-5h. 2′, 3′, 4′-THC acts as antagonist in the mouse uterus. Uterine weights of intact (FIG. 5a) and OVX (FIG. 5b) mice. […] (FIG. 5h) Total body weight of OVX mice after 4 week treatment. Error bars are ±SEM.

U2OS-ERα cells [4] = assay: Real-time PCR of unique genes FGR, KCNK6, KRT73 in U2OS-ERα cells; assay type: cell-based, human
Description: Expression was assessed by up regulation or down regulation of 3-fold or more and a P-value≤0.05. […] Error bars are ±SEM.
as §2

ERα = ERα (Homo sapiens, UniProt P03372); assay: NKG2E-TK-Luc transfection assay, U2OS cells cotransfected with ERα; assay type: cell-based; parameters: expressed in transfected cells; host or cells: U2OS; conditions: 5 μM 2′,3′,4′-THC + 10 or 100 nM estrogen, 24 hours
Sequence of ERα (P03372 whole entry): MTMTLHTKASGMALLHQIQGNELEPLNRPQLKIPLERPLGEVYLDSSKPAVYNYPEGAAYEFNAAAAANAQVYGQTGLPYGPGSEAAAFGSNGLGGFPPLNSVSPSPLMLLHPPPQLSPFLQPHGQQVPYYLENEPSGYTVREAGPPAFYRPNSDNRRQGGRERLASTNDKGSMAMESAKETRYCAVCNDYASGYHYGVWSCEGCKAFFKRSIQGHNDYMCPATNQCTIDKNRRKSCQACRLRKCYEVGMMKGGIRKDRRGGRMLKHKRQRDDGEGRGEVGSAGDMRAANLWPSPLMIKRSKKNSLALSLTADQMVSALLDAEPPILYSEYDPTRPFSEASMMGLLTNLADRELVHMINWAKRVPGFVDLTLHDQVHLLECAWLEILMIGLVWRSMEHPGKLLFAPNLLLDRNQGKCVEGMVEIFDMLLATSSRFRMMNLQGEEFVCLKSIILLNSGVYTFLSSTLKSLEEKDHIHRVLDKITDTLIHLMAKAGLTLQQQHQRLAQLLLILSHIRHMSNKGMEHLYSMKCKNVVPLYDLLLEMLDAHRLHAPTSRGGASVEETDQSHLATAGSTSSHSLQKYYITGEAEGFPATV
Description: FIG. 7a-7e. […] (C) U2OS cells cotransfected with GRE-TK-Luc and human (h) GR and treated with 10 nM of dexamethasone (Dex) and 5 μM of 2′, 3′, 4′-THC alone or in combination for 24 hours. (D) U2OS cells cotransfected with human tyrosine aminotransferase (TATS)-luciferase reporter gene and hAR and treated with 10 nM of dihydrotestosterone (DHT) and 5 μM of 2′, 3′, 4′-THC alone or in combination for 24 hours. (E) U2OS cells cotransfected with TAT3-luciferase reporter gene and hPR-B and treated with 10 nM of progesterone (Prog) and 5 μM of 2′, 3′, 4′-THC alone or in combination for 24 hours. After transfection, luciferase activities were measured as described in the Methods. RLU is relative light units and the data shown are mean±SEM.
as §2

[5] = 1 μM ICI, 10 nM estradiol, 5 μM 2′,3′,4′-THC, 24 hours

Structure (SMILES): C[C@]12CC[C@@H]3c4ccc(O)cc4CC[C@H]3[C@@H]1CC[C@@H]2O [E2, 17β-estradiol, reference compound]
- KRT19 gene expression, compound alone (U2OS-ERα cells [1]): induced
- genes uniquely regulated by E2 alone (U2OS-ERα cells [2]; 10 nM E2): 222 genes
- number of genes regulated, compound alone (U2OS-ERα cells [2]; 10 nM E2 or 5 μM 2′,3′,4′-THC, 3-fold or more, P≤0.05): 756 genes
- NKG2E gene expression, compound alone (U2OS-ERα cells [3]; 24 hours): activated
- MCF-7 cell proliferation, compound alone (MCF-7 cells): increased
- H & E staining of uterus, compound alone (mouse uterus): increased the number of cells lining the duct
- amount of gonadal adipose tissue fat (mouse uterus; E2 alone): decreased
- uterine size / uterine weight, compound alone (mouse uterus; osmotic pump): large increase
- E2 dose at which FGR activation was observed (U2OS-ERα cells [4]; E2 alone, 24 hrs): 10 nM
- KCNK6 regulation (U2OS-ERα cells [4]; E2 alone, 24 hrs): not regulated
- KRT73 regulation (U2OS-ERα cells [4]; E2 alone, 24 hrs): not regulated

Structure (SMILES): C[C@]12CC[C@@H]3c4cc(O)c(O)cc4CC[C@H]3[C@@H]1CC[C@@H]2O [2-hydroxyestradiol, reference compound]
- synergistic action of 2′,3′,4′-THC on NKG2E-TK-Luc with the named estrogen (ERα): synergistic action

Structure (SMILES): COc1cc2c(cc1O)CC[C@@H]1[C@@H]2CC[C@]2(C)[C@@H](O)CC[C@@H]12 [2-methoxyestradiol, reference compound]
- synergistic action of 2′,3′,4′-THC on NKG2E-TK-Luc with the named estrogen (ERα): smaller synergistic activation

Structure (SMILES): C[C@]12CC[C@@H]3c4ccc(O)cc4C[C@@H](CCCCCCCCC[S+]([O-])CCCC(F)(F)C(F)(F)F)[C@H]3[C@@H]1CC[C@@H]2O (some centres unmarked) [ICI 182,780]
- effect on induction of NKG2E by the 2′,3′,4′-THC/E2 combination (U2OS-ERα cells [3]; [5]): blocked
- effect on induction of KRT73 by the 2′,3′,4′-THC/E2 combination (U2OS-ERα cells [4]; [5]): blocked

Structure (SMILES): O=C(c1ccc(OCCN2CCCCC2)cc1)c1c(-c2ccc(O)cc2)sc2cc(O)ccc12 [raloxifene]
- KRT19 gene expression, compound alone (U2OS-ERα cells [1]): no effect
- effect on E2-induced KRT19 expression (U2OS-ERα cells [1]): blocked
- NKG2E gene expression, compound alone (U2OS-ERα cells [3]; 24 hours): activated
- effect on E2-induced NKG2E gene expression (U2OS-ERα cells [3]; in combination with 10 nM E2, 24 hours): antagonized

Structure (SMILES): C[C@]12CC[C@@H]3c4ccc(O)c(O)c4CC[C@H]3[C@@H]1CC[C@@H]2O [4-hydroxyestradiol, reference compound]
- synergistic action of 2′,3′,4′-THC on NKG2E-TK-Luc with the named estrogen (ERα): synergistic action

Structure (SMILES): CC/C(=C(\c1ccccc1)c1ccc(OCCN(C)C)cc1)c1ccccc1 [tamoxifen]
- KRT19 gene expression, compound alone (U2OS-ERα cells [1]): no effect
- effect on E2-induced KRT19 expression (U2OS-ERα cells [1]): blocked
- NKG2E gene expression, compound alone (U2OS-ERα cells [3]; 24 hours): activated
